The values below come from EP4786487A1, “PEPTIDE” (Peptidream Inc, priority 2023, dated 2025).

The target in one assay is T1, GDF-11 (Homo sapiens, UniProt O95390).
T1 construct: purchased R&D systems 1958-GD-G8/CF
T1 sequence (O95390 299-407): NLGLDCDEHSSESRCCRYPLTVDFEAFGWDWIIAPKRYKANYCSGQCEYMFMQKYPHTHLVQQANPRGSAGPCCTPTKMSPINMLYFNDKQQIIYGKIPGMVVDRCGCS
The experiment in a line: Reporter gene assay for myostatin signaling in HepG2 cell line, Evaluation Procedure (1), GDF-11 inhibition. In kind it is cell-based. As for the experimental part: (§1) In this Example, the in vitro myostatin inhibitory effects of the peptides synthesized in Examples 1 and 2 were evaluated using a reporter gene assay for myostatin signaling in HepG2 cell line.
(§2) HepG2 cell line (HB-8065, ATCC) cultured in EMEM (055-08975, WAKO Industries) containing 10% FBS (10270106, Gibco) and 50 µg/mL gentamicin (11980-14, Nacalai Tesque) was seeded in 96-well plates (167008, Thermo) at 2.0 × 10^4 cells/well and incubated in a CO2 incubator (37°C, 5% CO2) for 24 hours. The pGL3(CAGA)12-luc plasmid, namely a pGL3 vector (E1751, Promega) having a luciferase gene inserted downstream of a promoter sequence with 12 CAGA repeats attached, was added to the wells along with a transfection reagent (X-treamGENE9 DNA Transfection Reagent, 6365809001, Roche) at a concentration of 0.04 µg/well. The cell line was cultured in a CO2 incubator (37°C, 5% CO2) for 24 hours for transfection. The medium was discarded and replaced with EMEM containing 50 µL/well of 0.1% bovine serum albumin (A7030, Sigma) and 50 µg/mL gentamicin, and incubated in a CO2 incubator (37°C, 5% CO2) for 2 hours.
(§3) Myostatin (788-G8/C, R&D systems) or GDF-11 (1958-GD-G8/CF, R&D systems) was added so that the final concentrations were those listed in Table 5.
(§4) A 4-fold dilution series of various peptides synthesized in Examples 1 and 2 was added to achieve 0.006-100 nmol/L (myostatin inhibition) and 0.12-2000 nmol/L (GDF-11 inhibition). At this time, blank wells, in which neither myostatin, GDF-11, nor each peptide was added, were also prepared and incubated in a CO2 incubator (37°C, 5% CO2) for 20 to 24 hours.
(§5) The medium containing the cells was removed, and a mixture containing PBS (14190144, Thermo) and a chromogenic substrate One-Glo Luciferase Assay System (E6120, Promega) at a ratio of 1:1 was added to each well at 100 µL/well. This was stirred with a plate shaker for 5 min and transferred to a 384-well plate (3570, Corning) at a volume of 20 µL/well.
(§6) The plate was centrifuged at 1,000 × g for 1 min and the luminescence signal (700 nm luminescence) was measured using a plate reader (Envision 2104, PerkinElmer). Based on the measured values, IC50 values of the peptides were calculated using software (Prism 9, GraphPad). […]
(§7) In this Example, the in vitro myostatin inhibitory effects of the peptides synthesized in Examples 10 and 11 were evaluated according to the Evaluation Procedure (1) in Example 3.
(Reporter assays use an easily measured gene product as a stand-in for the process of interest.)

The target of a further assay is T2, Myostatin (Homo sapiens, UniProt O14793).
T2 construct: active myostatin (also called mature myostatin) is a homodimer consisting of two C-terminal growth factor domains; purchased R&D systems 788-G8/CF
T2 sequence (O14793 267-375): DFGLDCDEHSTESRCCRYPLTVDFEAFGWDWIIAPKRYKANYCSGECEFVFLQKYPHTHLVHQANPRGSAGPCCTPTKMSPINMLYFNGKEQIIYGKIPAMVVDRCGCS
In words: Reporter gene assay for myostatin signaling in HepG2 cell line, Evaluation Procedure (1), myostatin inhibition. In kind it is cell-based. The method, then: as §1, §2, §3, §4, §5, §6, §7

The mark [1] stands for this setting: Method D: GDF-11 1.5 ng/mL, read-out: IC50 (Luciferase) GDF-11 HepG2.
Where [2] appears, read: Method D: Myostatin 1.5 ng/mL, read-out: IC50 (Luciferase) Myostatin HepG2.
Setting [3] is: HepG2, luciferase reporter, Evaluation Procedure (1), Method D, read-out: IC50 (Luciferase) GDP-11 HepG2.
[4] abbreviates: HepG2, luciferase reporter, Evaluation Procedure (1), Method D.

Each structure is given as a SMILES string. Read-outs that look alike come from different tables or passages of the source. Starred links: 1 amine or outer side, 2 acyl side, 3 side chain; linkers in the order of their positions; H or OH if unused. Positions of bridges follow the written chain, without caps; N, C: chain ends. Non-standard residues stand in square brackets, D forms with d. Residues, ends and D or L forms follow the SMILES beside them. *: point of attachment. Trp(6-OH,1-(4-HO2C-Ph)) = N[C@@H](Cc1cn(-c2ccc(C(=O)O)cc2)c2cc(O)ccc12)C(=O)O; Phe(3-OCH2COOH) = N[C@@H](Cc1cccc(OCC(=O)O)c1)C(=O)O; N(CH2CH2CO)Gly = O=C(CN(CCC(=O)[*:3])[*:1])[*:2]; NMePhe(4-CH2NH2) = CN[C@@H](Cc1ccc(CN)cc1)C(=O)O; Piperidine(4-CH2CH2CONH2) = NC(=O)CCC1CCN(*)CC1; Phe(4-COOH) = N[C@@H](Cc1ccc(C(=O)O)cc1)C(=O)O; Bip = N[C@@H](Cc1ccc(-c2ccccc2)cc1)C(=O)O; Gly(N(CH2)3COOH) = O=C(O)CCCNCC(=O)O; NMeY = CN[C@@H](Cc1ccc(O)cc1)C(=O)O; X1 = CCCCCCC[C@H](N[*:1])C(=O)[*:2]; NMeF = CN[C@@H](Cc1ccccc1)C(=O)O; NMeDab = CN[C@@H](CCN)C(=O)O; NMeDap = CN[C@@H](CN)C(=O)O; NMeA = CN[C@@H](C)C(=O)O; dNMeA = CN[C@H](C)C(=O)O

`CC[C@H](C)[C@@H]1NC(=O)[C@H](Cc2ccc(O)cc2)N(C)C(=O)[C@H](Cc2ccc(O)cc2)NC(=O)[C@H](Cc2ccc(-c3ccccc3)cc2)NC(=O)[C@H](C)NC(=O)CN(CCCC(=O)O)C(=O)CSC[C@H](C(=O)O)NC(=O)[C@H](Cc2ccccc2)N(C)C(=O)[C@H](C)N(C)C(=O)[C@H](CC(C)C)NC(=O)[C@H](Cc2ccccc2)N(C)C(=O)[C@H](CCCNC(=N)N)NC(=O)[C@H](Cc2ccc(C(=O)O)cc2)NC(=O)[C@H](Cc2cccc(OCC(=O)O)c2)NC(=O)[C@@H](C)N(C)C1=O` [Myostatin_99_v118] ({CH2CO}-[Gly(N(CH2)3COOH)]A[Bip]Y[NMeY]I[dNMeA][Phe(3-OCH2COOH)][Phe(4-COOH)]R[NMeF]L[NMeA][NMeF][dC]-OH; thioether N-15): the IC50 was 4030 nM at GDF-11 (Method A: GDF-11 10 ng/mL, read-out: IC50 (Luciferase) GDF-11 HepG2) and 23.1 nM on Myostatin (Method A: Myostatin 10 ng/mL, read-out: IC50 (Luciferase) Myostatin HepG2).

As to `CCCCCCC[C@@H]1NC(=O)[C@@H]2Cc3ccc(cc3)CNC(=O)CC[C@H](NC(=O)CSC[C@H](C(=O)O)NC(=O)[C@H](Cc3ccccc3)N(C)C(=O)[C@H](C)N(C)C1=O)C(=O)N[C@@H](C)C(=O)N[C@@H](Cc1c[nH]c3ccccc13)C(=O)N[C@@H](Cc1ccc(O)cc1)C(=O)N(C)[C@@H](Cc1ccccc1)C(=O)N[C@@H]([C@@H](C)CC)C(=O)N(C)[C@@H](C)C(=O)N[C@@H](Cc1cccc(OCC(=O)O)c1)C(=O)N[C@@H](Cc1ccc(C(=O)O)cc1)C(=O)N[C@@H](CCCNC(=N)N)C(=O)N2C` [Myostatin_99_v358] ({CH2CO}-EAWY[NMeF]I[NMeA][Phe(3-OCH2COOH)][Phe(4-COOH)]R[NMePhe(4-CH2NH2)][X1][NMeA][NMeF][dC]-OH; lactam 1-11; thioether N-15), the IC50 turned out to be 52.8 nM on GDF-11 (setting [1]) and 0.17 nM at Myostatin (setting [2]).

Consider `CCCCCCC[C@@H]1NC(=O)[C@H](Cc2ccccc2)N(C)C(=O)[C@H](CCCNC(=N)N)NC(=O)[C@H](Cc2ccc(C(=O)O)cc2)NC(=O)[C@H](Cc2cccc(OCC(=O)O)c2)NC(=O)[C@H](C)N(C)C(=O)[C@H]([C@@H](C)CC)NC(=O)[C@H](Cc2ccccc2)N(C)C(=O)[C@H](Cc2ccc(O)cc2)NC(=O)[C@H](Cc2c[nH]c3ccccc23)NC(=O)[C@H](C)NC(=O)[C@@H]2CC(=O)NCC[C@@H](C(=O)N(C)[C@@H](Cc3ccccc3)C(=O)N[C@@H](C(=O)O)CSCC(=O)N2)N(C)C1=O` [Myostatin_99_v367] ({CH2CO}-DAWY[NMeF]I[NMeA][Phe(3-OCH2COOH)][Phe(4-COOH)]R[NMeF][X1][NMeDab][NMeF][dC]-OH; lactam 1-13; thioether N-15), for which the figures for the IC50 at GDF-11 (setting [1]) and on Myostatin (setting [2]) were 117 nM and 0.15 nM, respectively.

As for `CCCCCCC[C@@H]1NC(=O)[C@@H]2Cc3ccc(cc3)CNC(=O)CC[C@H](NC(=O)CSC[C@H](C(=O)O)NC(=O)[C@H](Cc3ccccc3)N(C)C(=O)[C@H](C)N(C)C1=O)C(=O)N[C@@H](C)C(=O)N[C@@H](Cc1cn(-c3ccc(C(=O)O)cc3)c3cc(O)ccc13)C(=O)N[C@@H](Cc1ccc(O)cc1)C(=O)N(C)[C@@H](Cc1ccccc1)C(=O)N[C@@H]([C@@H](C)CC)C(=O)N1CCC[C@@H]1C(=O)N[C@@H](Cc1cccc(OCC(=O)O)c1)C(=O)N[C@@H](Cc1ccc(C(=O)O)cc1)C(=O)N[C@@H](CCCNC(=N)N)C(=O)N2C` [Myostatin_99_v424] ({CH2CO}-EA[Trp(6-OH,1-(4-HO2C-Ph))]Y[NMeF]I[dP][Phe(3-OCH2COOH)][Phe(4-COOH)]R[NMePhe(4-CH2NH2)][X1][NMeA][NMeF][dC]-OH; lactam 1-11; thioether N-15), the IC50 amounted to 15.2 nM on GDF-11 (setting [1]) and 0.04 nM at Myostatin (setting [2]).

For the compound `CCCCCCC[C@@H]1NC(=O)[C@H](Cc2ccccc2)N(C)C(=O)[C@H](CCCNC(=N)N)NC(=O)[C@H](Cc2ccc(C(=O)O)cc2)NC(=O)[C@H](Cc2cccc(OCC(=O)O)c2)NC(=O)[C@H]2CCCN2C(=O)[C@H]([C@@H](C)CC)NC(=O)[C@H](Cc2ccccc2)N(C)C(=O)[C@H](Cc2ccc(O)cc2)NC(=O)[C@H](Cc2cn(-c3ccc(C(=O)O)cc3)c3cc(O)ccc23)NC(=O)[C@H](C)NC(=O)CN2CCC(=O)NC[C@@H](C(=O)N(C)[C@@H](Cc3ccccc3)C(=O)N[C@@H](C(=O)N3CCC(CCC(N)=O)CC3)CSCC2=O)N(C)C1=O` [Myostatin_99_v478] ({CH2CO}-[N(CH2CH2CO)Gly]A[Trp(6-OH,1-(4-HO2C-Ph))]Y[NMeF]I[dP][Phe(3-OCH2COOH)][Phe(4-COOH)]R[NMeF][X1][NMeDap][NMeF][dC]-{Piperidine(4-CH2CH2CONH2)}; lactam 1-13; thioether N-15), the IC50 at GDF-11 (setting [3]) was 25.5 nM; at Myostatin (setting [4]), 0.04 nM.

With `CCCCCCC[C@@H]1NC(=O)[C@H](Cc2ccccc2)N(C)C(=O)[C@H](CCCNC(=N)N)NC(=O)[C@H](Cc2ccc(C(=O)O)cc2)NC(=O)[C@H](Cc2cccc(OCC(=O)O)c2)NC(=O)[C@H]2CCCN2C(=O)[C@H]([C@@H](C)CC)NC(=O)[C@H](Cc2ccccc2)N(C)C(=O)[C@H](Cc2ccc(O)cc2)NC(=O)[C@H](Cc2cn(-c3ccc(C(=O)O)cc3)c3cc(O)ccc23)NC(=O)[C@H](C)NC(=O)CN(CCCC(=O)O)C(=O)[C@H](C)N(C)C(=O)[C@@H](C)NC(=O)[C@H](Cc2ccccc2)N(C)C(=O)[C@H](C)N(C)C1=O` [Myostatin_99_v482] (cyclo(A[Trp(6-OH,1-(4-HO2C-Ph))]Y[NMeF]I[dP][Phe(3-OCH2COOH)][Phe(4-COOH)]R[NMeF][X1][NMeA][NMeF][dA][NMeA][Gly(N(CH2)3COOH)])), the figures for the IC50 on GDF-11 (setting [3]) and at Myostatin (setting [4]) were 90.2 nM and 0.11 nM, respectively.

As for `CCCCCCC[C@@H]1NC(=O)[C@H](Cc2ccccc2)N(C)C(=O)[C@H](CCCNC(=N)N)NC(=O)[C@H](Cc2ccc(C(=O)O)cc2)NC(=O)[C@H](Cc2cccc(OCC(=O)O)c2)NC(=O)[C@H]2CCCN2C(=O)[C@H]([C@@H](C)CC)NC(=O)[C@H](Cc2ccccc2)N(C)C(=O)[C@H](Cc2ccc(O)cc2)NC(=O)[C@H](Cc2cn(-c3ccc(C(=O)O)cc3)c3cc(O)ccc23)NC(=O)[C@H](C)NC(=O)[C@H](C)NC(=O)[C@H](C)N(C)C(=O)[C@@H](C)NC(=O)[C@H](Cc2ccccc2)N(C)C(=O)[C@H](C)N(C)C1=O` [Myostatin_99_v483] (cyclo(AA[Trp(6-OH,1-(4-HO2C-Ph))]Y[NMeF]I[dP][Phe(3-OCH2COOH)][Phe(4-COOH)]R[NMeF][X1][NMeA][NMeF][dA][NMeA])), the IC50 on GDF-11 (setting [3]) was determined as 59.9 nM; on Myostatin (setting [4]), 0.14 nM.

In the case of `CCCCCCC[C@@H]1NC(=O)[C@H](Cc2ccccc2)N(C)C(=O)[C@H](CCCNC(=N)N)NC(=O)[C@H](Cc2ccc(C(=O)O)cc2)NC(=O)[C@H](Cc2cccc(OCC(=O)O)c2)NC(=O)[C@H]2CCCN2C(=O)[C@H]([C@@H](C)CC)NC(=O)[C@H](Cc2ccccc2)N(C)C(=O)[C@H](Cc2ccc(O)cc2)NC(=O)[C@H](Cc2cn(-c3ccc(C(=O)O)cc3)c3cc(O)ccc23)NC(=O)[C@H](C)NC(=O)CN(CCCC(=O)O)C(=O)CSC[C@H](C(=O)N2CCC(CCC(N)=O)CC2)NC(=O)[C@H](Cc2ccccc2)N(C)C(=O)[C@H](C)N(C)C1=O` [Myostatin_99_v488] ({CH2CO}-[Gly(N(CH2)3COOH)]A[Trp(6-OH,1-(4-HO2C-Ph))]Y[NMeF]I[dP][Phe(3-OCH2COOH)][Phe(4-COOH)]R[NMeF][X1][NMeA][NMeF][dC]-{Piperidine(4-CH2CH2CONH2)}; thioether N-15), the IC50 turned out to be 53.2 nM at GDF-11 (setting [3]) and 0.18 nM on Myostatin (setting [4]).

By IC50 is commonly meant the point on the concentration scale where inhibition reaches its midpoint.
